Measurements: patent US20250091994A1, “RAS/RAF BINDING INHIBITOR COMPOUND” (NATIONAL UNIVERSITY CORPORATION KOBE UNIVERSITY, priority 2021, published 2025)

Assays:
Format in all cases: cell-based
[1] = system: promyelocytic leukemia cells HL60 (N-RasQ61L); test: Cell growth inhibition, suspension cells HL60; settings: Homo sapiens, HL-60; 1 μM, 72 hours; read-out: HL-60 (NRasQ61L) % inhibition at 1 μM
Method in brief: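 Suspension cells, 2 to 4×10^4 per well, cultured with compound in medium with 0.5% FBS (1% DMSO final) for 72 h at 37° C, 5% CO2. Viable cells counted with Cell Counting Reagent; inhibition calculated relative to controls.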

[2] = system: Vemurafenib-resistant malignant melanoma cells A375R (BRafV600E); test: Cell growth inhibition, drug-resistant malignant melanoma A375R; settings: Homo sapiens, in the presence of 1 μM PLX (Vemurafenib), 72 hours
Description: The human malignant melanoma cell lines A375 and HT 144, each having BRafV600E mutation, were cultured in a medium containing 10% FBS at 37° C. in the presence of 5% CO2. At the time point in which the cells became confluent, 1 μM Vemurafenib, a BRaf inhibitor, was added to the medium, and the cells were then cultured in the presence of Vemurafenib for 1 month or more (during which the medium was exchanged every 1 week), so as to acquire Vemurafenib-resistant malignant melanoma cells A375R and HT 144R. The resulting resistant cells were suspended in a medium containing 10% FBS, and then seeded on a 96-well plate to an amount of 1 to 2×10^4 cells/well. The cells were cultured at 37° C. in the presence of 5% CO2 overnight. Thereafter, the medium was exchanged with a medium containing 0.5% FBS, to which each compound solution (final DMSO concentration: 1%) and 1 μM Vemurafenib had been added, and the cells were then cultured at 37° C. in the presence of 5% CO2 for 72 hours.
Thereafter, the number of viable cells was measured using Cell Counting Reagent (Nacalai Tesque) in accordance with the manufacturer's instructions. Inhibition by the test compound was determined according to the following equation: […]
Hereafter, Inhibition (%) by 3.3 μM compound is shown.

[3] = system: phosphorylated ERK (pERK) in HL60 cells; test: Ras-Raf signaling inhibition at culture cell level, pERK; settings: Homo sapiens, HL-60; HL60 (N-RasQ61L), 1 μM test compound, 3 hours
Description: The Ras-Raf signaling inhibitory activity of the compound of the present invention at a culture cell level was evaluated by the following method.
The HL60 cells described in Test Example 2 suspended in a medium containing 0.5% (v/v) FBS with each compound solution (final DMSO concentration: 1%), were seeded on a 12-well plate (2 to 4×10^5 cells/well), and the resulting mixture was then cultured at 37° C. in the presence of 5% CO2 for 3 hours.
After completion of the cell culture, proteins were extracted from the cells, using RIPA Buffer (Nacalai Tesque) containing a mixture of protease inhibitors and phosphatase inhibitors. An equivalent amount of protein was separated by standard SDS-PAGE and was then transferred onto a PVDF membrane. In order to detect the activation (phosphorylation) of MEK and ERK, downstream molecules of the Ras-Raf signaling pathway, the membrane was probed with 1000-fold diluted primary antibodies {phosphorylated MEK (pMEK: #9121), phosphorylated ERK (pERK: #9101), total MEK (tMEK: #9122), and total ERK (tERK: 9102); all from Cell signaling}, and then with a 1000-fold diluted horseradish peroxidase-labeled secondary antibody against rabbit immunoglobulin G. The immunoreactive signals were colored with EzWestLumi One (ATTO), and were then detected by Fusion FX (Vilber). Signal intensity was quantified by pixel counting. Inhibition by the test compound was determined according to the following equation: […]

Molecule `CC(=O)N1/C(=C\c2nc3cc(C(=O)N4CCOCC4)ccc3s2)C(=O)c2ccccc21` [Example 47, (Z)-1-acetyl-2-((5-(morpholine-4-carbonyl)benzo [d]thiazol-2-yl)-methylene)-indolin-3-one] has an inhibition at 1 µM [1] of 89%, an inhibition at 3.3 µM [2] of 90% and an inhibition at 1 µM [3] of 94%.
